Laboratory results reported in article PMC10054362, “Anti–Zika Virus Activity and Isolation of Flavonoids from Ethanol Extracts of Curatella americana L. Leaves” (Molecules, 2023).
In brackets after ≈: the same amount, converted by molar mass. Several values for one entry are separate records, joined by “and”; a condition that tells them apart may be missing. Equal values may be shown once. Read-outs that look alike come from different tables or passages of the source.

Legend:
[1] = Cytotoxicity evaluation by MTT assay in Vero cells; assay type: cell-based, African green monkey; conditions: African green monkey
Description: (§1) The cytotoxicity of ethanolic extracts of stems, leaves, fractions, and substances isolated from the C. americana species was evaluated by the colorimetric MTT method in Vero cell lines (derived from African green monkey kidneys) and MRC-5 (derived from normal human lung tissue).
(§2) Cell suspensions (Vero and MRC-5) were distributed in 96-well microplates containing 6.0 × 10^4 cells/well. The plates were incubated in a humidified 5% CO2 atmosphere at 37 °C for 24 h. Samples solubilized in dimethyl sulfoxide (DMSO) were diluted in culture medium supplemented with 1% SFB [48, 49]. Substance dilutions ranged from 800 to 0.125 µg/mL. After the formation of the cell monolayer on the surface of the wells, the culture medium was removed, and 100 μL of diluted sample solutions along with 100 μL of 1% SFB-enriched culture medium were added, and the plates were incubated under the same atmospheric condition. Seventy-two hours after the addition of samples, the culture medium was removed, and 28.0 μL of MTT solution (2.0 mg/mL in PBS) was added to each well, and the plates were incubated again for 120 min. At the end of this period, 132 μL of DMSO was added to all wells, and the plates were shaken on a plate shaker for 15 min to dissolve the formed formazan. Formazan quantification obtained by reducing tetrazolium salt in viable cells was performed on a Victor^TM X3 microplate reader® (PerkinElmer, Waltham, MA, USA) using the WorkOut 2.5 software at 490 nm. Cell multiplication was compared with cell control. Cell toxicity was expressed in terms of 50% cytotoxic concentration (CC50). The cytotoxic percentage was calculated as [(A-B)/A] × 100, where A and B are the optical densities at 490 nm (OD490) from the wells where untreated (A) and treated (B) cells are present, respectively.
(§3) Data from cytotoxicity and antiviral assays were evaluated according to their means and standard deviations. […] These analyses were performed using the GraphPad Prism 5.04 statistical package® (GraphPad Software, Boston, MA, USA).

Zika virus [2] = assay: Screening for anti-Zika virus activity by MTT colorimetric technique in infected Vero cells; assay type: cell-based; conditions: for EC50: ZIKV-infected Vero cells, MTT; for SI Vero: ratio of CC50 (Vero) to EC50
Description: After the determination of optimal noncytotoxic use concentrations, assays were performed, treating ZIKV-infected Vero cells with eight concentrations from the noncytotoxic concentrations for each sample. The results of the 50% effective concentration (EC50—concentration of the substance capable of reducing the viral cytopathic effect by 50%) and selectivity index (SI) are described in Table 2.
It was performed according to the methodology described by Brandão et al.. Sample stock solutions were prepared in DMSO (dimethyl sulfoxide) and evaluated at noncytotoxic concentrations. Vero cell monolayers were cultured in 96-well plates (6 × 10^4 cells per well). After 24 h of incubation in 5% CO2 at 37 °C, the culture medium (DMEM 5% SFB) was removed, and 100.0 μL of sample dilutions were added to each well along with 100.0 μL of the viral suspension. Then, the cultures were incubated in a humid atmosphere containing 5% CO2 at 37 °C for 72 h. Cell viability was assessed by the MTT colorimetric technique. The supernatant was removed, and then 28.0 μL of an MTT solution (2.0 mg/mL in PBS) was added to each well. The plates were incubated for 2 h at 37 °C, and after this incubation time, 132.0 μL DMSO was added to each well to dissolve the formazan crystals. The plates were stirred for 15 min (Shaker New Brunswick Scientific C24), and the optical density was determined at 490 nm (OD490) in a microplate reader.
The effective concentration that has 50% antiviral effect, or 50% effective concentration (EC50), is expressed as the concentration that promotes the protection of 50% of treated cells from destruction caused by the virus. The percentage of protection was calculated as [(AB)/CB)] × 100, where A, B, and C are the OD490 of the wells, in which are present treated and infected (A), untreated and infected (B), and untreated and non-infected cells (C), respectively.
Data from cytotoxicity and antiviral assays were evaluated according to their means and standard deviations. The cytotoxic concentration at 50% and the effective concentration at 50% were determined compared with the control obtained from nonlinear regression. These analyses were performed using the GraphPad Prism 5.04 statistical package® (GraphPad Software, Boston, MA, USA).

[3] = Cytotoxicity evaluation by MTT assay in MRC-5 cells; assay type: cell-based, human; conditions: human
Description: as §1, with “tissue). The results of CC50 are described in Table 2.” for “tissue).”
as §2
(§4) Data from cytotoxicity and antiviral assays were evaluated according to their means and standard deviations. The cytotoxic concentration at 50% and the effective concentration at 50% were determined compared with the control obtained from nonlinear regression. […]

Zika virus [4] = assay: In vitro cytopathic effect inhibition assay in ZIKV-infected Vero cell monolayer; assay type: cell-based; conditions: Vero cells, MOI = 1, treated after infection, quercetin 20 µg/mL, leaf extract 85 µg/mL, photographed after 48 h
Description: This can be seen by the destruction and morphological alterations of the cells, such as rounding of cells, formation of lumps, and changes in cell refringence, especially when compared with the uninfected and untreated cell monolayer (Figure 4A).
Figure 4 Antiviral effect against Zika virus in Vero cells treated with ethanol extract of leaves and quercetin. Vero cells were infected with ZIKV, treated with ethanol extract of leaves/quercetin, and photographed after 48 h of infection. (A) Uninfected and untreated cells, (B) infected cells, (C) cells uninfected and treated with ethanol extract of leaves (85 µg/mL), (D) cells infected and treated with ethanol extract of leaves (85 µg/mL), (E) cells uninfected and treated with quercetin (20 µg/mL), (F) cells infected and treated with quercetin (20 µg/mL). Magnification, 100x.
In order to confirm the anti-ZIKV activity observed in the antiviral MTT assay, the Vero cell monolayer (9.5 × 10^6 cells per well) was infected by viral suspensions with titers of 1.0 × 10^7 TCID50/mL, (MOI = 1), Zika virus, during 1 h for the viral adsorption. Afterwards, the viral suspension was removed and the wells were washed with PBS. Then, the wells were treated with the active concentration of the compound (20 μg/mL) and ethanolic extract of leaves of C. americana (85 μg/mL). […]

Vero cells = assay: Cytotoxicity evaluation by MTT assay in Vero cells; assay type: cell-based, African green monkey; conditions: MTT, 72 h, n = 3
Description: as §1, §2, §3

MRC-5 cells = assay: Cytotoxicity evaluation by MTT assay in MRC-5 cells; assay type: cell-based, human; conditions: MTT, 72 h, n = 3
Description: as §1, with “tissue). The results of CC50 are described in Table 2.” for “tissue).”
as §2, §4

[5] = Zika virus, 72 h, n = 3, read-out: EC50 (converted)

In the case of `O=c1c(O[C@@H]2O[C@H](CO)[C@@H](O)[C@H](O)[C@H]2O)c(-c2ccc(O)c(O)c2)oc2cc(O)cc(O)c12` [Quercetin-3-O-glucoside], the CC50 at 72 h [1] is reported as > 100 µg/mL and > 216 µM, the EC50 (Zika virus [2]; 72 h, n = 3) is reported as “Inactive” and the EC50 (Zika virus [2]; [5]) is reported as greater than 100 µg/mL. For the same molecule, the CC50 at 72 h [3] was > 100 µg/mL and > 216 µM.

With `NC(=O)c1ncn([C@@H]2O[C@H](CO)[C@@H](O)[C@H]2O)n1` [Ribavirin, reference compound] the CC50 at 72 h ([1]; Vero cells, MTT, 72 h, n = 3, read-out: CC50 Vero (converted)) was 370.4 ± 1.2 µg/mL (≈ 1520 µM) and the EC50 (Zika virus [2]; [5]) was 94.5 µg/mL and 387 µM.

With `O=c1c(O)c(-c2ccc(O)c(O)c2)oc2cc(O)cc(O)c12` [Quercetin] the “protection of ZIKV-infected cell monolayer from viral cytopathic effect” value (Zika virus [4]) was “protect the cells from a virus infection”, the CC50 at 72 h ([1]; MTT, 72 h, n = 3, read-out: CC50 Vero (converted)) was 71.3 µg/mL and 236 µM and the EC50 (Zika virus [2]; [5]) was 18.6 µg/mL and 61.6 µM. For the same molecule, the EC50 (Zika virus [2]; Zika virus, read-out: EC50, inhibition of the viral cytopathic effect (abstract, unit inferred)) was 18.6 ± 2.8 µg/mL (≈ 61.5 µM) and the “SI Vero” value (Zika virus [2]) was 3.8.

In the case of Quercetin-3-O-hexosylgallate, the CC50 (Vero cells) is reported as 496 µM, the “CC50 Vero” value (Vero cells) is reported as 305.6 ± 1.4 µg/mL and the “SI MRC-5” value (Zika virus [2]; ratio of CC50 (MRC-5) to EC50) is reported as greater than 0.7. The “SI Vero” value (Zika virus [2]) was 2.0, the CC50 (MRC-5 cells) was greater than 162 µM and the “CC50 MRC-5” value (MRC-5 cells) was greater than 100 µg/mL.
